The results in this text go back to paper PMC5402304, “Oxoaporphine Metal Complexes (Co^II, Ni^II, Zn^II) with High Antitumor Activity by Inducing Mitochondria-Mediated Apoptosis and S-phase Arrest in HepG2” (Scientific Reports, 2017).

For one data set, the system named is HepG2. Briefly: MTT cytotoxicity assay, HepG2. It counts as cell-based, human. The procedure: (§1) The in vitro cytotoxicity of OD, 1–3 and the corresponding metal salts were determined by MTT assay towards a panel of human tumor cells including HepG2, T-24, BEL-7404, MGC80-3, SK-OV-3/DDP and normal HL-7702 cells. As the positive control, cisplatin was dissolved at a concentration of 1 mM in 0.154 M NaCl[32].
(§2) The human tumor cell lines (BEL-7404, HepG2, MGC80–3, T-24, SK-OV-3/DDP and HeLa cells) and the human normal liver cell line HL-7702 were obtained from Shanghai Cell Bank in Chinese Academy of Sciences. Cells were cultured in Dulbecco’s modified Eagle’s medium (DMEM) or RPMI-1640 medium, which supplemented with 10% fetal bovine serum (FBS) and 100 U/mL penicillin and streptomycin. Cells were cultured at 37 °C in a humidified atmosphere with 5% CO2/95% air. Tested compounds (2.0 mM) were prepared as DMSO stock solution before they were diluted to working concentrations by PBS buffer (containing 0.5% DMSO), while cisplatin dissolved in 0.9% sodium chloride solution was used as positive controls.
(§3) Cells in their logarithmic phase were seeded in 96-well plates with 5.5 × 10^3/180 μL per well for 24 h. Then 20 μL of compounds at various concentrations were added to each well to achieve final concentrations of 1.25, 2.5, 5.0, 10.0, and 20.0 μM. All the cells were incubated with test compounds for another 48 h before MTT assay. Control wells contained media with 0.5% DMSO. After 48 h of cultivation, 10 μL of MTT (5 mg/mL in PBS) was added to each well, and cells were incubated at 37 °C for 6 h. The contents in the wells were pipetted out carefully, and the formazan crystals formed were dissolved in 100 μL of DMSO, and the absorbance was measured by enzyme labeling instrument with 490 nm/630 nm double wavelength measurement. The IC50 value was defined as a drug concentration killing 50% cells in comparison with untreated controls, which was calculated by the Bliss method (n = 5). All tests were repeated in at least three independent trials.
For orientation: Tetrazolium dyes change colour on reduction, which living cells bring about.

In another data set the test system is T-24. Description: MTT cytotoxicity assay, T-24. It counts as cell-based, human. The procedure:
as §1, §2, §3

The test system of the next data set is MGC80-3. Description: MTT cytotoxicity assay, MGC80-3. It counts as cell-based, human. How it is done: as §1, §2, §3
The subject of the next data set is HepG2 cells. Description: Comet assay for DNA damage. The conditions noted are these: HepG2, 1.0 μM, 24 h. It counts as cell-based, human. Set-up: unit not given here. How it is done:
After the observation of significant S-phase arrest caused by 1–3, the study of DNA damage assay is necessary. The single cell gel electrophoresis technique (comet assay) is a simple, sensitive, reliable, and rapid method to detect DNA damage in eukaryotic cell[39]. As shown in Table 3 and Fig. 6, 1–3 at 1.0 μM induced DNA damage (fragmentation or unwinding) appeared as fluorescent comets with remarkable increase of tails size, especially for 3.
The comet assay is a simple method for measuring DNA strand breaks in cells. The comet assay reagent kit was purchased from Trevigen, and the experiment was carried out according to the manufacturer’s instructions. After treatment with OD and 1–3 at 1.0 μM, HepG2 cells were harvested and suspended at 1 × 10^6 Hep-G2 cells/mL in PBS. The cells suspension was mixed with melted LM agarose at a ratio of 1:10 (v/v). An aliquot (75 μL) of the mixture was immediately pipetted onto the slide (Comet Slide TM). After refrigeration for 30 min, the slide was immersed in pre-chilled lysis solution and left on ice for 60 min, followed by immersing in freshly prepared alkaline solution (300 mM NaOH, 1 mM EDTA, pH > 13) for 60 min on ice in darkness. After DNA unwinding, the slide was subjected to alkaline solution for electrophoresis in a Savant ps 250 system set at 300 mA and 1 volt/cm for 30 min. After electrophoresis, the slide was rinsed with distilled H2O, fixed in 70% ethanol for 5 min and air-dried overnight. DNA was stained with SYBR Green I (Trevigen) and visualized under a fluorescence microscope (Nikon, Eclipse E600).

Data set [1] in a line: Body weight of mice in the HepG2 xenograft model. It counts as in vivo, BALB/c nude mice. As to conditions: 3.0 and 6.0 mg/kg ip daily, versus solvent control group. The procedure: To further evaluate the in vivo antitumor efficacy of these complexes, 3 was selected to inhibit tumor growth in a HepG2 xenografts model. The mice were randomized into control group, 3-treated groups and positive control group (n = 6). Once the tumor had grown to an average volume of about 100 mm^3, two group of nude mice were injected intraperitoneally (ip) of 3 at a high dose (6.0 mg/kg) and a low (3.0 mg/kg) dose daily for 20 days, respectively. Cisplatin was used as positive control injected at 2.0 mg/kg every two days, while control group received solvents only.
BALB/c nude mice (male, 17–20 g, 5–6 weeks old) were supplied by Guangxi Medical University Laboratory Animal Centre (Guangxi, China, approval no. SCXK 2014–0002 and SYXK 2014–0003). All of the experimental procedures were carried out according to the NIH Guidelines for the Care and Use of Laboratory Animals. Animal experiments were approved by the Animal Care and Use Committee of Guangxi Medical University. Animal were housed at IVC system (individual ventilated caging) with conditions of constant photoperiod (12 h light/12 h dark at 25−28 °C and 45−65% humidity). The xenograft tumor model was established in the same way as we reported before. […]
The tumor volumes and body weight were measured every 3 days, and tumor size was calculated as volume = (w^2l)/2, where w is the width and l is the length in mm of tumor[70]. […]

One may read the IC50 as the midpoint of a concentration-inhibition curve. [Zn(OD)2(H2O)2] (ClO4)2 [Complex 3]: the inhibitive ratio worked out at 89.58±1.22% in the data set with HepG2 (HepG2, 20 μmol/L, 48 h); 84.16±0.76% with T-24 (T-24, 20 μmol/L, 48 h); 67.30±0.21% in the data set with MGC80-3 (MGC80-3, 20 μmol/L, 48 h). In addition, the concentration for half-maximal inhibition (IC50) was 390 ± 30 nM with HepG2 (HepG2, 48 h, MTT); 510 ± 170 nM in the data set on T-24 (T-24, 48 h, MTT); 4310 ± 310 nM in the data set on MGC80-3 (MGC80-3, 48 h, MTT). This substance also displayed a Comet length in the data set on HepG2 cells of 119.12 ± 6.59. In addition, in the data set on HepG2 cells, the Olive tail moment was 22.67 ± 3.76. Moreover, the Tail length in the data set on HepG2 cells is 58.67 ± 9.14. The same substance returned a Tail moment in the data set on HepG2 cells of 30.46 ± 6.98. Also, the “in vivo toxic effect (loss in body weight)” value in data set [1] is listed as “no significant loss in body weight”.
